Test results taken from patent US8546537B2, “Streptavidin having low immunogenicity and use thereof” (The University of Tokyo, priority 2009, dated 2013).
pKd: −log10 of the molar value.

Experiments:
[1] = background art; cited from earlier work
[2] = Kinetics analysis of interaction between streptavidin protein and biotin using Biacore biosensor; assay type: binding; conditions: for pKd: Biacore 3000, obtained from kd/ka, read-out: Dissociation constant Kd
Description: As a ligand (a substance to be attached to a sensor chip) used for a Biacore (registered trademark) biosensor, an anti-mouse IgG antibody (manufactured by GE Healthcare Biosciences) was used. On the other hand, as analytes (substances to be supplied to the flow channel system), a biotinylated mouse antibody and various types of mutant streptavidins were prepared, and intermolecular interaction was then analyzed using Biacore (registered trademark) 3000 (a biosensor based on the principle of surface plasmon resonance; manufactured by GE Healthcare Biosciences). The anti-mouse IgG antibody was immobilized on all of the flow cells of a CM5 sensor chip according to an amine coupling method. The amount of the antibody immobilized on each flow cell was 8000 RU. Subsequently, as references, non-biotinylated mouse antibodies were captured onto Flow Cells 1 and 3, and biotinylated mouse antibodies were captured onto Flow Cells 2 and 4. Various types of streptavidins were loaded in a running buffer (HBS-EP; manufactured by GE Healthcare Biosciences) on Flow Cells 1 and 2, or 3 and 4, at a flow rate of 20 μl/min for 2 minutes. Thereafter, dissociation of each sample was monitored for 7 minutes. Thereafter, a reproduction operation was carried out using a 10 mM glycine-HCl buffer (pH 1.7) (manufactured by GE Healthcare Biosciences), and repeat measurement was then carried out. Using the analysis software BIAevaluation ver. 4.1, a reaction kinetics analysis was performed on a 1:1 binding model based on the obtained sensorgram, so as to calculate an association rate constant (ka) and a dissociation rate constant (kd). A dissociation constant (Kd) was obtained from kd/ka.
The results of the kinetics analysis of the intermolecular interaction of a recombinant streptavidin and a biotin, which was carried out using Biacore (registered trademark) 3000 (a biosensor based on the principle of surface plasmon resonance; manufactured by GE Healthcare Biosciences), are as shown in Table 2.

[3] = Biacore 3000, biotinylated mouse antibody captured, 1:1 binding model

Dissociation rate constant kd [2, 3]	pKd [2]	Substance	isoelectric point [1]	Association rate constant ka [2, 3]
–	–	Avidin: basic glycoprotein derived from albumen	exceeds 10	–
6.32 × 10^−5 S^−1	9.65	cSA_WT: wild-type (native) core streptavidin, amino acid sequence SEQ ID NO: 2 [reference compound]	around the neutral range	2.81 × 10^5 M^−1 S^−1
7.49 × 10^−4 S^−1	8.45	mcSA_W120A: streptavidin mutant named W120A in Table 2; not described further [reference compound]	–	–
